Publication PMC9851200, “Multiparameter phenotypic screening for endogenous TFEB and TFE3 translocation identifies novel chemical series modulating lysosome function” (Autophagy, 2022)
Like-named read-outs stand apart in the source and are kept apart here.

What was measured:
endogenous TFE3 = assay: TFE3 nuclear translocation, immunocytochemistry high-content imaging; format: cell-based
SH-SY5Y cells [1] = assay: Chemotype enrichment analysis of PKIS2 primary screen hit categories
endogenous TFEB = assay: TFEB nuclear translocation, immunocytochemistry high-content imaging; format: cell-based
SH-SY5Y cells [2] = system: SH-SY5Y cells; further: reference of the scale not given here
SH-SY5Y cells [3] = conditions: human
SH-SY5Y cells [4] = conditions: human; remark: listed apart in the source

Row | AK (SH-SY5Y cells [3]; SH-SY5Y cells, 24 h, 1 µM) | Nuclear Count (SH-SY5Y cells [4]; SH-SY5Y cells, 24 h, 1 µM) | Compound | TFE3 % (endogenous TFE3) | Outcome (SH-SY5Y cells [1]) | TFEB % (endogenous TFEB) | DQ Intensity (SH-SY5Y cells [2]) | DQ Spot (SH-SY5Y cells [2]) | AK (SH-SY5Y cells [3]; 24 h, 1 µM) | Nuclear Count (SH-SY5Y cells [4]; 24 h, 1 µM) | AK (SH-SY5Y cells [3]) | Nuclear Count (SH-SY5Y cells [4])
1 | 82.09 | 74.04 | Nc1n[nH]c2ncc(-c3ccccc3)cc12 [SB-517081] | 10.19% | DQ Only | 4.88% | 121.05 | 122.46 |  |  |  | 
2 | 99.42 | 69.78 | Nc1n[nH]c2nnc(-c3ccccc3)cc12 [SB-517389] | 18.57% | DQ Only | 5.21% | 136.15 | 127.72 |  |  |  | 
3 | 230.70 | 59.85 | CCCC(=O)Nc1n[nH]c2ncc(-c3cccc4ccccc34)cc12 [SB-642057] | 14.05% | TOXIC | 5.52% | 126.93 | 107.10 |  |  |  | 
4 | 133.76 | 103.55 | O=C(Nc1n[nH]c2nc(-c3ccc(O)cc3)ccc12)C1CC1 [SB-710363] | 18.16% | DQ Only | 15.49% | 87.11 | 130.75 |  |  |  | 
5 | 105.72 | 107.31 | O=C(Nc1n[nH]c2nc(-c3cccc(O)c3)ccc12)C1CC1 [SB-711805] | 23.15% | TFE3 | 10.76% | 78.27 | 112.05 |  |  |  | 
6 | 83.64 | 45.35 | O=C(Nc1n[nH]c2nc(-c3ccccc3)c(Cl)cc12)C1CC1 [SB-734909] | 10.45% | DQ Only | 6.63% | 123.78 | 126.24 |  |  |  | 
7 | 87.38 | 103.32 | O=C(Nc1n[nH]c2nc(-c3ccco3)c(Br)cc12)C1CCN(Cc2ccccc2)C1 (centres unmarked) [SB-742034] | 21.82% | TFE3 | 3.21% | 103.44 | 100.36 |  |  |  | 
8 |  |  | COc1ccccc1C1=C(Nc2cccc(O)c2)C(=O)NC1=O [UNC10225043A] | 13.36% |  | 8.14% | 136.47 | 112.45 | 125.63 | 83.80 |  | 
9 | 91.51 | 71.42 | COc1cccc(C2=C(Nc3cccc(C(=O)O)c3)C(=O)NC2=O)c1 [UNC10225061A] | 19.97% | TFE3 | 7.42% | 83.20 | 110.64 |  |  |  | 
10 | 106.60 | 88.09 | O=C1NC(=O)C(c2ccccc2)=C1Nc1cccc(O)c1 [UNC10225065A] | 9.48% |  | 4.40% | 107.12 | 107.03 |  |  |  | 
11 | 157.36 | 105.86 | CN(C1=C(c2ccccc2)C(=O)NC1=O)c1ccccc1 [UNC10225087A] | 7.91% | TOXIC | 6.00% | 118.90 | 112.39 |  |  |  | 
12 | 134.26 | 99.00 | O=C1NC(=O)C(c2ccc(Cl)cc2)=C1Nc1ccc(O)cc1 [UNC10225090A] | 11.41% |  | 11.08% | 92.30 | 94.51 |  |  |  | 
13 | 96.89 | 114.88 | O=C1NC(=O)C(c2ccccc2Cl)=C1Nc1cccc(Cl)c1 [UNC10225092A] | 13.82% |  | 6.93% | 81.85 | 94.92 |  |  |  | 
14 |  |  | Cn1cnc2c(N)ncnc21 [UNC10225123A] | 9.16% |  | 4.18% | 105.88 | 110.82 |  |  | 74.79 | 110.43
15 | 100.20 | 132.24 | O=C1NC(=O)C(N2CCc3ccccc32)=C1c1cccc(Cl)c1 [UNC10225137A] | 20.87% | TFE3 | 4.79% | 107.62 | 107.27 |  |  |  | 
16 | 73.45 | 95.91 | Nc1n[nH]c2nnc(-c3ccccc3)c(-c3ccccc3)c12 [UNC10225185A] | 12.30% |  | 8.38% | 101.09 | 91.84 |  |  |  | 
17 | 104.34 | 155.73 | CSc1ccc(NC2=C(c3ccc(Cl)cc3)C(=O)NC2=O)cc1 [UNC10225216A] | 17.03% |  | 4.27% | 88.23 | 93.29 |  |  |  | 
18 | 80.02 | 109.36 | COc1ccc(C2=C(Nc3cccc(C(=O)O)c3)C(=O)NC2=O)cc1 [UNC10225244A] | 6.87% |  | 15.51% | 74.93 | 82.38 |  |  |  | 
19 | 83.08 | 86.30 | O=C1NC(=O)C(N2CCc3ccccc32)=C1c1ccccc1Cl [UNC10225255A] | 11.28% | DQ Only | 3.84% | 155.35 | 121.27 |  |  |  | 
20 | 136.91 | 119.42 | COc1cccc(C2=C(Nc3cc(Cl)c(O)c(Cl)c3)C(=O)NC2=O)c1 [UNC10225267A] | 12.35% |  | 6.51% | 123.38 | 111.15 |  |  |  | 
21 |  |  | Cc1ccc(C(=O)NC2CCCC2)cc1-c1ccc(C(=O)NCC2CC2)cc1 [UNC10225270A] | 10.04% |  | 16.20% | 84.15 | 81.23 | 80.83 | 92.17 |  | 
22 | 133.69 | 80.70 | COc1cccc(C2=C(Nc3cccc(Cl)c3)C(=O)NC2=O)c1 [UNC10225288A] | 8.01% |  | 6.04% | 106.89 | 108.64 |  |  |  | 
23 | 105.29 | 103.43 | CSc1ccc(NC2=C(c3ccccc3Cl)C(=O)NC2=O)cc1 [UNC10225346A] | 14.52% |  | 6.03% | 121.64 | 113.39 |  |  |  | 
24 |  |  | Cc1ccc(-n2nc(C(C)(C)C)cc2NC(=O)Nc2ccc(OCCN3CCOCC3)c3ccccc23)cc1 [UNC10225354A] | 11.86% |  | 7.39% | 143.22 | 116.14 |  |  | 120.63 | 65.33
25 | 101.77 | 97.83 | COc1cccc(C2=C(Nc3cccc(O)c3)C(=O)NC2=O)c1 [UNC10225456A] | 7.19% |  | 8.57% | 100.94 | 105.72 |  |  |  | 
26 | 74.47 | 85.62 | O=C1NC(=O)C(c2ccc(Cl)cc2)=C1Nc1cccc(Cl)c1 [UNC10225464A] | 10.27% |  | 3.70% | 132.70 | 111.59 |  |  |  | 
